Tests used:
[1] = tested on: Wnt signaling; assay: TCF/LEF reporter (Luciferase) assay in the absence of Notum; assay type: cell-based; settings: up to 10 μM; n = 4
Protocol: Figure S10. Notum TCF/LEF reporter (Luciferase) data with WNT3A (100 ng/mL) in the absence of Notum.
Examples are from different
Additional inhibition -concentration curves for compounds 6-9 will be made available upon reasonable request.

[2] = target: kinase named in conditions (Homo sapiens, UniProt O14965); assay: SelectScreen kinase profiling, SSBK ZLyte SP Technology; assay type: biochemical; settings: AURKA (Aurora A), 10 μM
Protocol: (§1) Kinase selectivity screening was performed by Thermo Fisher Scientific (Paisley, U.K.) in their SelectScreen Biochemical Kinase Profiling Service. Assay information and data are presented in the Supporting Information.
(§2) Kinase selectivity screening was performed by ThermoFisher Scientific (Paisley, U.K.) in their SelectScreenTM
(§3) Biochemical Kinase Profiling service .

[3] = target: kinase named in conditions (Homo sapiens, UniProt O15530); assay: as above; assay type: biochemical
Protocol: as §1, §2, §3

[4] = target: kinase named in conditions (Homo sapiens, UniProt O75116); assay: as above; assay type: biochemical; settings: ROCK2, 10 μM
Protocol: as §1, §2, §3

[5] = target: kinase named in conditions (Homo sapiens, UniProt O76039); assay: as above; assay type: biochemical; settings: CDKL5, 10 μM
Protocol: as §1, §2, §3

[6] = target: kinase named in conditions (Homo sapiens, UniProt O94806); assay: as above; assay type: biochemical; settings: PRKCN (PKD3), 10 μM
Protocol: as §1, §2, §3

[7] = target: kinase named in conditions (Homo sapiens, UniProt O96013); assay: as above; assay type: biochemical; settings: PAK4, 10 μM
Protocol: as §1, §2, §3

[8] = target: kinase named in conditions (Homo sapiens, UniProt O96017); assay: as above; assay type: biochemical; settings: CHEK2 (CHK2), 10 μM
Protocol: as §1, §2, §3

[9] = target: kinase named in conditions (Homo sapiens, UniProt P00519); assay: as above; assay type: biochemical; settings: ABL1, 10 μM
Protocol: as §1, §2, §3

[10] = target: kinase named in conditions (Homo sapiens, UniProt P08581, M1250T); assay: as above; assay type: biochemical; settings: MET M1250T, 10 μM
Protocol: as §1, §2, §3

[11] = target: kinase named in conditions (Homo sapiens, UniProt P11362); assay: as above; assay type: biochemical; settings: FGFR1, 10 μM
Protocol: as §1, §2, §3

[12] = target: kinase named in conditions (Homo sapiens, UniProt P21802, N549H); assay: as above; assay type: biochemical; settings: FGFR2 N549H, 10 μM
Protocol: as §1, §2, §3

[13] = target: kinase named in conditions (Homo sapiens, UniProt P23458); assay: as above; assay type: biochemical; settings: JAK1, 10 μM
Protocol: as §1, §2, §3

[14] = target: kinase named in conditions (Homo sapiens, UniProt P24941); assay: as above; assay type: biochemical; settings: CDK2/cyclin A, 10 μM
Protocol: as §1, §2, §3

[15] = target: kinase named in conditions (Homo sapiens, UniProt P29322); assay: as above; assay type: biochemical; settings: EPHA8, 10 μM
Protocol: as §1, §2, §3

[16] = target: kinase named in conditions (Homo sapiens, UniProt P36507); assay: as above; assay type: biochemical; settings: MAP2K2 (MEK2), 10 μM
Protocol: as §1, §2, §3

[17] = target: kinase named in conditions (Homo sapiens, UniProt P36896); assay: as above; assay type: biochemical; settings: ACVR1B (ALK4), 10 μM
Protocol: as §1, §2, §3

[18] = target: kinase named in conditions (Homo sapiens, UniProt P42685); assay: as above; assay type: biochemical; settings: FRK (PTK5), 10 μM
Protocol: as §1, §2, §3

[19] = target: kinase named in conditions (Homo sapiens, UniProt P45984); assay: as above; assay type: biochemical; settings: MAPK9 (JNK2), 10 μM
Protocol: as §1, §2, §3

[20] = target: kinase named in conditions (Homo sapiens, UniProt P53778); assay: as above; assay type: biochemical; settings: MAPK12 (p38 gamma), 10 μM
Protocol: as §1, §2, §3

[21] = target: kinase named in conditions (Homo sapiens, UniProt P53779); assay: as above; assay type: biochemical; settings: MAPK10 (JNK3), 10 μM
Protocol: as §1, §2, §3

[22] = target: kinase named in conditions (Homo sapiens, UniProt P54753); assay: as above; assay type: biochemical; settings: EPHB3, 10 μM
Protocol: as §1, §2, §3

[23] = target: kinase named in conditions (Homo sapiens, UniProt Q06187); assay: as above; assay type: biochemical; settings: BTK, 10 μM
Protocol: as §1, §2, §3

[24] = target: kinase named in conditions (Homo sapiens, UniProt Q13188); assay: as above; assay type: biochemical; settings: STK3 (MST2), 10 μM
Protocol: as §1, §2, §3

[25] = target: kinase named in conditions (Homo sapiens, UniProt Q14164); assay: as above; assay type: biochemical; settings: IKBKE (IKK epsilon), 10 μM
Protocol: as §1, §2, §3

[26] = target: kinase named in conditions (Homo sapiens, UniProt Q15349); assay: as above; assay type: biochemical; settings: RPS6KA2 (RSK3), 10 μM
Protocol: as §1, §2, §3

[27] = target: kinase named in conditions (Homo sapiens, UniProt Q16644); assay: as above; assay type: biochemical; settings: MAPKAPK3, 10 μM
Protocol: as §1, §2, §3

[28] = target: kinase named in conditions (Homo sapiens, UniProt Q16816); assay: as above; assay type: biochemical; settings: PHKG1, 10 μM
Protocol: as §1, §2, §3

[29] = target: kinase named in conditions (Homo sapiens, UniProt Q8IU85); assay: as above; assay type: biochemical; settings: CAMK1D (CaMKI delta), 10 μM
Protocol: as §1, §2, §3

[30] = target: kinase named in conditions (Homo sapiens, UniProt Q8TDC3); assay: as above; assay type: biochemical; settings: BRSK1 (SAD1), 10 μM
Protocol: as §1, §2, §3

[31] = target: kinase named in conditions (Homo sapiens, UniProt Q9H1R3); assay: as above; assay type: biochemical; settings: MYLK2 (skMLCK), 10 μM
Protocol: as §1, §2, §3

[32] = target: kinase named in conditions (Homo sapiens, UniProt Q9H3Y6); assay: as above; assay type: biochemical; settings: SRMS (Srm), 10 μM
Protocol: as §1, §2, §3

[33] = Stability in dog liver microsomes

Chain of kinase named in conditions (Homo sapiens, UniProt O15530) (O15530 whole entry): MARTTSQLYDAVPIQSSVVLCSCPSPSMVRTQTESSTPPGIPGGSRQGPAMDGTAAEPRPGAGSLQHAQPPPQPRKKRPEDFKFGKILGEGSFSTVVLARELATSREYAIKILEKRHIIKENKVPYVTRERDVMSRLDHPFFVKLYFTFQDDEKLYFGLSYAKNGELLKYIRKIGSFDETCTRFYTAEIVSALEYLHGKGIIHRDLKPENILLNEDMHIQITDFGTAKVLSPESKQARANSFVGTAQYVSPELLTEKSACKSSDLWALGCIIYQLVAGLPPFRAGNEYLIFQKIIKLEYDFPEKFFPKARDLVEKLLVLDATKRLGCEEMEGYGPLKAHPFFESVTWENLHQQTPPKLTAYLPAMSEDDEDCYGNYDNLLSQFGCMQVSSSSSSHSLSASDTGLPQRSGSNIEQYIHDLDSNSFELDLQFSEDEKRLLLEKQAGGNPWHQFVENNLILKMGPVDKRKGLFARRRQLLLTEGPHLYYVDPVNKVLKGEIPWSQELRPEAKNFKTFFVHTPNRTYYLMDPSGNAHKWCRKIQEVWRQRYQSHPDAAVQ
Chain of kinase named in conditions (Homo sapiens, UniProt P36896) (P36896 24-505): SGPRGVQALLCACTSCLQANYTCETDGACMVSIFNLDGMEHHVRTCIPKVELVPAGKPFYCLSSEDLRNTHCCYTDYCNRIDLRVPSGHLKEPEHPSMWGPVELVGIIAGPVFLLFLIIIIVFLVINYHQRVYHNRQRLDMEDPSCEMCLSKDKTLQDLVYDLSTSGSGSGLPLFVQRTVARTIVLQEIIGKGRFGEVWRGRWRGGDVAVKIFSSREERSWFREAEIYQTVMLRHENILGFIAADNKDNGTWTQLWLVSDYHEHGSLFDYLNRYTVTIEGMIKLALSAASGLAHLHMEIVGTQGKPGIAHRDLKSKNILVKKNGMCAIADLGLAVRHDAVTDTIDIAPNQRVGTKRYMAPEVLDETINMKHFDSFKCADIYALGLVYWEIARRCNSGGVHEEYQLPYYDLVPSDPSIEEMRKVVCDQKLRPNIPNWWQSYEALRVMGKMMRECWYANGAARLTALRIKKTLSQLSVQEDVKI
Chain of kinase named in conditions (Homo sapiens, UniProt P21802, N549H) (P21802 22-821 N549H): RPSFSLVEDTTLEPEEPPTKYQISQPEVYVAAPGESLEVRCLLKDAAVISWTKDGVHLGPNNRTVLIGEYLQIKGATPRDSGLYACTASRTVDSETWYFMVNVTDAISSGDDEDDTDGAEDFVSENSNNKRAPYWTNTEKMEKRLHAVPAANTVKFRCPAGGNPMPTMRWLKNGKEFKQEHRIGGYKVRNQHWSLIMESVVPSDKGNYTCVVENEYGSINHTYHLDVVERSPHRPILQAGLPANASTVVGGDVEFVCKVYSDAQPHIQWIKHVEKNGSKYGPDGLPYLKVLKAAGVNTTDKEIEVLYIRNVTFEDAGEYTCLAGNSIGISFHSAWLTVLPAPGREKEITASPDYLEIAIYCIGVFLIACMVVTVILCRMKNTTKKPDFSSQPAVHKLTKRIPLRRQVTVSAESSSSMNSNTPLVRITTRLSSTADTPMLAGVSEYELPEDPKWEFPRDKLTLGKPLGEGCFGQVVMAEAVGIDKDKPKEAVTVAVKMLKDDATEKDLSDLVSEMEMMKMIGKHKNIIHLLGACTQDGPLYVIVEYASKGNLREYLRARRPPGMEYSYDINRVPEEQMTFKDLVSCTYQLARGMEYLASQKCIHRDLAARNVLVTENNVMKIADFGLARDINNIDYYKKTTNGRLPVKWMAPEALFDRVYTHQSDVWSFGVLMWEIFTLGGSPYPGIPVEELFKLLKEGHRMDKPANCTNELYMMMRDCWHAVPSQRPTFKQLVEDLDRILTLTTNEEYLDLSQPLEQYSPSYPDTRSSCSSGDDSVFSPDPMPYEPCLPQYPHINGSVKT
Chain of kinase named in conditions (Homo sapiens, UniProt Q8IU85) (Q8IU85 whole entry): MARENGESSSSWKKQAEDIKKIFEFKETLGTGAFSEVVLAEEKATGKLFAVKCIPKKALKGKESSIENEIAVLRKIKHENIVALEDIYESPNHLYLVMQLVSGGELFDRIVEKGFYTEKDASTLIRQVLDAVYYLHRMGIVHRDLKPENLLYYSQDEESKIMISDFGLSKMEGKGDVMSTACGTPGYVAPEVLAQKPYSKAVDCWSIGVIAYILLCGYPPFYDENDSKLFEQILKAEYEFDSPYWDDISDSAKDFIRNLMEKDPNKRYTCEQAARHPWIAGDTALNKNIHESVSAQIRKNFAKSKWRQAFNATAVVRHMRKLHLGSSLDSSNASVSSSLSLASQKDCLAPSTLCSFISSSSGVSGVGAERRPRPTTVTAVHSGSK
Chain of kinase named in conditions (Homo sapiens, UniProt P29322) (P29322 28-1005): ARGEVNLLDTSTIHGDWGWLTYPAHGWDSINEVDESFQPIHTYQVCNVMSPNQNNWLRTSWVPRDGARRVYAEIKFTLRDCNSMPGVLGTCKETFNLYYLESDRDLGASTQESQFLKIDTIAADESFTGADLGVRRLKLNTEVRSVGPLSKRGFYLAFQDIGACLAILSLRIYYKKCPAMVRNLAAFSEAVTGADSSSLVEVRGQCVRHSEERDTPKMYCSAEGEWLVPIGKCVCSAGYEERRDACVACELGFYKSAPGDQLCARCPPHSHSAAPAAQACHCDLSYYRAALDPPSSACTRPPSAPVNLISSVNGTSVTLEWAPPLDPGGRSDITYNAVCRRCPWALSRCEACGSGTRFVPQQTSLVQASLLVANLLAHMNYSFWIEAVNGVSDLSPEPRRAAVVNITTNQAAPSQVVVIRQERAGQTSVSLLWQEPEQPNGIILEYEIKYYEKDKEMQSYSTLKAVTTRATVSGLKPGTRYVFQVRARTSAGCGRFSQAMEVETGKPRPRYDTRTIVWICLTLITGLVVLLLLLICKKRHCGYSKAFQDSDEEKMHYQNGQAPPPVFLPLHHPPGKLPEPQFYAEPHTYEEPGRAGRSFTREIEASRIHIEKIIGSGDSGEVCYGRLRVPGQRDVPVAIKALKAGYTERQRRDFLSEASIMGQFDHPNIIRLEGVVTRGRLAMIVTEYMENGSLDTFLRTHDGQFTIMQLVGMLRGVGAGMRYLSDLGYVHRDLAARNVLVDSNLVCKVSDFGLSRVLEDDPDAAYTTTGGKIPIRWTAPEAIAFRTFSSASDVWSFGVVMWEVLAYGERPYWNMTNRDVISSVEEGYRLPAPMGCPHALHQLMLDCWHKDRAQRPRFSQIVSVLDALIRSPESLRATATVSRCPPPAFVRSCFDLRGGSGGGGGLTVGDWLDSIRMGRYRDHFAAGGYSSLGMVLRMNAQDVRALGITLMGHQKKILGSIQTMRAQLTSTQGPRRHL
Chain of kinase named in conditions (Homo sapiens, UniProt Q15349) (Q15349 whole entry): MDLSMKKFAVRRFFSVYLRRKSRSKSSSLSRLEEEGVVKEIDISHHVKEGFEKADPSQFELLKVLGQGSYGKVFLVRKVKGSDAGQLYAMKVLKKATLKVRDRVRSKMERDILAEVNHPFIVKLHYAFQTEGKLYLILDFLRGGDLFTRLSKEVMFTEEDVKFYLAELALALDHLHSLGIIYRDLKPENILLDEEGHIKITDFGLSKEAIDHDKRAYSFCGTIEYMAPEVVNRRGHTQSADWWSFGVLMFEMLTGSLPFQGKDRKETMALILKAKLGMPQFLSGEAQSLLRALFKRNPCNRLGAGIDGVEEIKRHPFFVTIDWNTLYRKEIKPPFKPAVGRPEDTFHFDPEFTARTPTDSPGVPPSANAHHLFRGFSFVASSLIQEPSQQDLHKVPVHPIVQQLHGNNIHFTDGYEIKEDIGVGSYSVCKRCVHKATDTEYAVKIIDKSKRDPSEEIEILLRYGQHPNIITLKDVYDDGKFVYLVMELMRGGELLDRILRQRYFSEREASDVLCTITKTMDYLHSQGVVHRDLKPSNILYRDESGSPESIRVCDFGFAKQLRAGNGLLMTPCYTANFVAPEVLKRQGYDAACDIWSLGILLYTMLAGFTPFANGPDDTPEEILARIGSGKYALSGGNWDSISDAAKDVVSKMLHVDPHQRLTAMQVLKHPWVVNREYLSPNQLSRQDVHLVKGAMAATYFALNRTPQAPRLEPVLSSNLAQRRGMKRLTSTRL
Chain of kinase named in conditions (Homo sapiens, UniProt Q06187) (Q06187 whole entry): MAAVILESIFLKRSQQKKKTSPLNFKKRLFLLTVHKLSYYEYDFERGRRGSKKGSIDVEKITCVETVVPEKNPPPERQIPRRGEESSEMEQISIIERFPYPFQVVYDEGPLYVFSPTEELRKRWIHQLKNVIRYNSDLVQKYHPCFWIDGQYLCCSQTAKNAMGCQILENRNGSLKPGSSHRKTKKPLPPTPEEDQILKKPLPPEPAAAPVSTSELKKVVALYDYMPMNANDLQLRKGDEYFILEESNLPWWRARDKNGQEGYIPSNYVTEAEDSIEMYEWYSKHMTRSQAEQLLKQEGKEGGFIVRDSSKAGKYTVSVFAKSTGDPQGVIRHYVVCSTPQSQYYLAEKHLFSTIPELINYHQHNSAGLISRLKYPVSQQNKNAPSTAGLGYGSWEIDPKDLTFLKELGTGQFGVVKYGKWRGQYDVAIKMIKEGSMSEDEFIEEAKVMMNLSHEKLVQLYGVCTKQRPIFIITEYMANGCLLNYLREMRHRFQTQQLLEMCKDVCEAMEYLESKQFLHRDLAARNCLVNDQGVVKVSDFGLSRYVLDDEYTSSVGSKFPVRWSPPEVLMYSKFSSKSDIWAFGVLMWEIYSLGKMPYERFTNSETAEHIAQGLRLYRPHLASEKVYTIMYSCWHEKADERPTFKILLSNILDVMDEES
Chain of kinase named in conditions (Homo sapiens, UniProt O14965) (O14965 whole entry): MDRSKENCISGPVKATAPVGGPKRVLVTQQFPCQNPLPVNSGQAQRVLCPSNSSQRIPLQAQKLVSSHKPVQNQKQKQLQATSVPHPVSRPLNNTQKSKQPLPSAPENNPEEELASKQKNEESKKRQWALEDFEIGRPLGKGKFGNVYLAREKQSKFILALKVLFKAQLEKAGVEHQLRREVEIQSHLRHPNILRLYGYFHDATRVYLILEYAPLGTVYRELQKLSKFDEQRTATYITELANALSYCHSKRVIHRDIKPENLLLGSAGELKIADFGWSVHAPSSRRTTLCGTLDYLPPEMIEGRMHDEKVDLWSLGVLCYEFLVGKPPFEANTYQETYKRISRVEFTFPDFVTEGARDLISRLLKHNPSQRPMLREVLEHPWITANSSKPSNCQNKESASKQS

SMILES: FC(F)(F)c1c(Cl)ccc(-n2ccnn2)c1Cl [8l, 1-(2,4-Dichloro-3-(trifluoromethyl)phenyl)-1H-1,2,3-triazole]
- Wnt response in the absence of Notum [1]: maximal Wnt response at all concentrations tested
- inhibition at 10 µM [2]: 4%
- inhibition at 10 µM ([3]; PDK1, 10 μM): 4%
- inhibition at 10 µM ([3]; PDK1 Direct, 10 μM): -2%
- inhibition at 10 µM [4]: 16%
- inhibition at 10 µM [5]: -5%
- inhibition at 10 µM [6]: 6%
- inhibition at 10 µM [7]: 2%
- inhibition at 10 µM [8]: 8%
- inhibition at 10 µM [9]: 19%
- inhibition at 10 µM [10]: 3%
- inhibition at 10 µM [11]: -3%
- inhibition at 10 µM [12]: 17%
- inhibition at 10 µM [13]: 2%
- inhibition at 10 µM [14]: 6%
- inhibition at 10 µM [15]: 2%
- inhibition at 10 µM [16]: 6%
- inhibition at 10 µM [17]: -12%
- inhibition at 10 µM [18]: 1%
- inhibition at 10 µM [19]: -17%
- inhibition at 10 µM [20]: 2%
- inhibition at 10 µM [21]: -1%
- inhibition at 10 µM [22]: -8%
- inhibition at 10 µM [23]: 21%
- inhibition at 10 µM [24]: -9%
- inhibition at 10 µM [25]: 11%
- inhibition at 10 µM [26]: 5%
- inhibition at 10 µM [27]: 1%
- inhibition at 10 µM [28]: 8%
- inhibition at 10 µM [29]: 1%
- inhibition at 10 µM [30]: 0%
- inhibition at 10 µM [31]: 15%
- inhibition at 10 µM [32]: 10%
- Liver microsome stability Cli, DLM [33]: 10.8 μL/min/mg protein
- half-life ([33]; dog, liver microsomes): 2.14 h
